{
  "source": "paper PMC7910394",
  "about": "“Design of PSMA ligands with modifications at the inhibitor part: an approach to reduce the salivary gland uptake of radiolabeled PSMA inhibitors?” (EJNMMI Radiopharmacy and Chemistry, 2021)",
  "key": {"PSMA": {"biological_target": "T1, PSMA (Homo sapiens, UniProt Q04609)", "T1 construct": "host or cells: LNCaP human prostate cancer cells", "T1 sequence (Q04609 whole entry)": "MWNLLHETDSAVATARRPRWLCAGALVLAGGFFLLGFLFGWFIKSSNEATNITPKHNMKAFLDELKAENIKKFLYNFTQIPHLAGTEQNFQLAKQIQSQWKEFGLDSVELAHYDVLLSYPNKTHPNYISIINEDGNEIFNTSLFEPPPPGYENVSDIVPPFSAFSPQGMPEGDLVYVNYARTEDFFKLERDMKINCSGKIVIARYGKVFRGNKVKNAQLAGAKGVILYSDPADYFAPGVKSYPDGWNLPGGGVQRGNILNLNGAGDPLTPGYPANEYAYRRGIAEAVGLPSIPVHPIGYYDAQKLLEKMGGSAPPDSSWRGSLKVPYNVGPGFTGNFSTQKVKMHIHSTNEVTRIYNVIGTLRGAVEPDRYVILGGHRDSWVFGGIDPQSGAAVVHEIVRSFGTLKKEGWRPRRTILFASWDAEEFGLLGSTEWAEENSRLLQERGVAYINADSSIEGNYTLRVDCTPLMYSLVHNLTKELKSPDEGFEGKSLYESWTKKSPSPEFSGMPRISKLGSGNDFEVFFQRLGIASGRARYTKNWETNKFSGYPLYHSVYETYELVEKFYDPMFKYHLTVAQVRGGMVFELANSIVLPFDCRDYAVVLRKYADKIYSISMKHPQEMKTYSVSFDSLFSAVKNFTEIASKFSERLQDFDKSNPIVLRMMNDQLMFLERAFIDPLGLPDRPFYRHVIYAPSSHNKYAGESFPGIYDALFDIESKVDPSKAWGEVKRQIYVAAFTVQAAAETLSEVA", "assay": "Competitive binding assay (IC50) on LNCaP cells with ([125I]I-BA)KuE as radioligand", "details": "([125I]I-BA)KuE 0.2 nM, HBSS (1% BSA), 4 °C, 1 h", "description": "PSMA-positive LNCaP cells (300265; Cell Lines Service, Eppelheim, Germany) were cultivated in Dulbecco’s modified Eagle medium/Nutrition Mixture F-12 with GlutaMAX (1/1, DMEM-F12, Thermo Fisher Scientific, Darmstadt, Germany) supplemented with 10% fetal bovine serum (Merck KGaA, Darmstadt, Germany) and kept at 37 °C in a humidified 5% CO2 atmosphere. One day (24 ± 2 h) prior to all in vitro experiments, the cultivated LNCaP cells were harvested using a mixture of trypsin/ethylenediamine-tetraacetic acid (0.05%/0.02%) in PBS (Thermo Fisher Scientific, Darmstadt, Germany) and centrifuged at 1300 rpm (ca. 190×g) for 3 min at room temperature (Heraeus Megafuge 16, Thermo Fisher Scientific, Darmstadt, Germany). After centrifugation, the supernatant was disposed and the cell pellet was resuspended in culture medium. Cells were counted with a Neubauer hemocytometer (Paul Marienfeld GmbH & Co. KG, Lauda-Königshofen, Germany) and seeded in 24-well plates.\nDetailed information on affinity and internalization experiments is provided in the supporting information. […] IC50 values of (^natI-BA)KuE were determined on the same day for monitoring assay performance and to identify abnormal deviations in uptake and/or affinity. […] Data were corrected for non-specific binding and normalized to the specific internalization observed for the radioiodinated reference compound (n = 3).\nThe culture medium was removed and the cells were washed with 500 µL of Hank’s balanced salt solution (HBSS) (Merck KGaA, Darmstadt, Germany), containing 1% bovine serum albumin (BSA) (Merck KGaA, Darmstadt, Germany). Afterwards, 200 µL of HBSS (1% BSA) were added to each well and equilibrated on ice (4 °C) for 15 min. […] Experiments were carried out in triplicates for each concentration. The final concentrations of unlabeled ligand ranged from 10^-11 - 10^-5 M and the final radioligand concentration was 0.2 nM in all binding assays. The cells were incubated for one hour at 4 °C. Incubation was terminated by removal of the incubation medium. The cells were washed with 250 µL of HBSS (1% BSA) and the wash medium was combined with the respective supernatant. This fraction represents the amount of free radioligand. The cells were lysed by addition of 250 µL of 1 M aqueous NaOH. The lysate of each well was transferred to the respective vial as well as 250 µL of 1 M NaOH used for rinsing the well. Quantification of the amount of free and bound activity was performed in a γ-counter. The corresponding IC50 values were calculated using the GraphPad PRISM7 software."}, "[1]": {"assay": "Lipophilicity (log D), shake-flask method", "type": "physicochemical", "details": "from log D values", "description": "The log D values were determined, using the shake-flask method as previously described (Wurzer et al. [2020]). The radiolabeled tracer (0.5–1 MBq, 20 μL) was dissolved in 1 mL of a 1/1 mixture (v/v) of PBS (pH 7.4) and n-octanol in a reaction vial (n = 6). After vigorous mixing of the suspension for 3 min at r.t., the vial was centrifuged at 9000 rpm (ca. 7700×g) for 5 min at room temperature (Heraeus Biofuge 15, Thermo Fisher Scientific, Darmstadt, Germany) and 150 μL aliquots of both layers were measured in a ɣ-counter."}},
  "data": [
    {"smiles": "CC(C)(C)[Si](F)(c1ccc(C(=O)NC[C@@H](NC(=O)CN2CCN(CC(=O)[O-])CCN(CC(=O)[O-])CCN(CC(=O)[O-])CC2)C(=O)N[C@H](CCCCNC(=O)CCC(=O)NCCC[C@@H](NC(=O)CC[C@H](NC(=O)N[C@@H](CCc2nnn[nH]2)C(=O)O)C(=O)O)C(=O)O)C(=O)O)cc1)C(C)(C)C.[Lu+3]", "note": "[^natLu/[^177Lu]Lu-11]", "values": [
      {"measurement": "IC50", "setting": "PSMA", "result": "0.0164 ± 0.0038", "unit": "µM"},
      {"measurement": "increase of lipophilicity compared to [177Lu]Lu-1", "setting": "[1]", "result": "~ 7.4 fold"}
    ]}
  ]
}
